# Assay results taken from ChEMBL document CHEMBL6078716, “Advances in Psychedelic Therapeutics: Novel Prodrugs and Derivatives for Enhanced Mental Health Treatment” (ACS Med Chem Lett, 2024).
# What was measured:
# [1] = biological target: T1, 5-hydroxytryptamine receptor 1A (Homo sapiens, UniProt P08908); assay: Binding affinity to 5-HT1A receptor (unknown origin) expressed in HEK293 cells assessed as inhibition constant; type: cell-based
# T1 sequence (P08908 whole entry): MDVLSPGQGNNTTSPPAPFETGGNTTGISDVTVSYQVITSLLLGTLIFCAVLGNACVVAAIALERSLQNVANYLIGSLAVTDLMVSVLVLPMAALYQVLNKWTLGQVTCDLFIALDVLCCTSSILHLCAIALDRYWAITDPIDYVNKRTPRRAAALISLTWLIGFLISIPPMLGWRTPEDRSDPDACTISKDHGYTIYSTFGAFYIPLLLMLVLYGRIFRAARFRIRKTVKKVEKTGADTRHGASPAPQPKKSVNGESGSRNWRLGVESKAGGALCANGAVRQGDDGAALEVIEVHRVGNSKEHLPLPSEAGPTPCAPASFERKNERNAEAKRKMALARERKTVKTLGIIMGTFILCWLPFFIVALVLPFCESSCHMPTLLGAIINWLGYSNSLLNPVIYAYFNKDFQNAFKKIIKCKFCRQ
# [2] = biological target: 5-hydroxytryptamine receptor 2A (Homo sapiens, UniProt P28223); assay: Binding affinity to 5-HT2A receptor (unknown origin) expressed in HEK293 cells assessed as inhibition constant; type: cell-based
# 5-hydroxytryptamine receptor 2A, sequence (P28223 whole entry): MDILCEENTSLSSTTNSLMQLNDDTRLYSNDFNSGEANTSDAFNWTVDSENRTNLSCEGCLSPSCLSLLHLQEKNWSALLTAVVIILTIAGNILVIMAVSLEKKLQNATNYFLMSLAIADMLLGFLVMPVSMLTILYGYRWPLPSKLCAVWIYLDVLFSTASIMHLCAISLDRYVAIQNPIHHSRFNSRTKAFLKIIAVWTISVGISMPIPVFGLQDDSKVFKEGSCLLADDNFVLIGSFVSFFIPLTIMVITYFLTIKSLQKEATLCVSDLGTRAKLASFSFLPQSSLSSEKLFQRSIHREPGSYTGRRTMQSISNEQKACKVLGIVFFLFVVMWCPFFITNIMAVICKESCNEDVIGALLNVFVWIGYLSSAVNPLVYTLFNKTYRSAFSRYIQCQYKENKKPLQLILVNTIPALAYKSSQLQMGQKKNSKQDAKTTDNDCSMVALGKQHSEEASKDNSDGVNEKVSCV
smiles,measurement,setting,value
CN(C)CCc1c[nH]c2cccc(O)c12 [PSILOCIN],Ki,[1],0.567 µM
CN(C)CCc1c[nH]c2cccc(OP(=O)(O)O)c12 [PSILOCYBIN],Ki,[1],> 10 µM
same,Ki,[2],> 10 µM
